Measured values taken from patent US20230257351A1, “SUBSTITUTED N-[…] HAVING P2X4 RECEPTOR ANTAGONISTIC ACTIVITY” (Bayer Aktiengesellschaft, priority 2020, published 2023).

How the values were obtained:
rat P2X4 = target: T1, rat P2X4 (Rattus norvegicus, UniProt P51577); test: FLIPR Method for Rat P2X4 1321N1 Astrocytoma Cells; assay type: cell-based; conditions: 1321N1 stably expressing rat P2X4; agonist MgATP 5 μM (EC80)
T1 construct: expressed in transfected cells
T1 sequence (P51577 1-388): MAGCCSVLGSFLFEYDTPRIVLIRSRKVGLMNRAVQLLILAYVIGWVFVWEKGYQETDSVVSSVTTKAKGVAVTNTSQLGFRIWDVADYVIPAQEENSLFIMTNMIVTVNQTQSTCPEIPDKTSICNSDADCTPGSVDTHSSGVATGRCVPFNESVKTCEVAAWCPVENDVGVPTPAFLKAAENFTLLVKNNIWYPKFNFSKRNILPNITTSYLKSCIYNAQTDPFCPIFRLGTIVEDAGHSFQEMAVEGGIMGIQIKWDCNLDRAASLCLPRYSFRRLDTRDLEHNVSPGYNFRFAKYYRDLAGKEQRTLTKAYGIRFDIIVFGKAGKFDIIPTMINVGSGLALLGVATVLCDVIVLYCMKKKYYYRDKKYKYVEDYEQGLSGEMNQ
Description: Compounds were tested on a 1321N1 cell line stably expressing rat P2X4. Cells were cultured on collagen-I-coated 384-well plates at a density of 10,000 cells/well and incubated overnight at 37° C., 5% CO2. P2X4 function was assessed by measuring intracellular calcium fluxes caused by Magnesium-ATP (MgATP) using the calcium-chelating dye Fluo8-AM (Molecular Devices) with the Fluorescent Imaging Plate Reader Tetra (FLIPR^Tetra; Molecular Devices CA). On the day of the assay, the medium was removed and the cells were incubated for 30 minutes at 37° C. and 5% CO2 in 30 μl of dye buffer (Hank's balanced salt solution, 10 mM HEPES, 1.8 mM CaCl2, 1 mM MgCl2, 2 mM probenecid, 5 mM D-glucose monohydrate, 5 μM Fluo8-AM, pH=7.4).
Compounds diluted in probenecid buffer (Hank's balanced salt solution, 10 mM HEPES, 1.8 mM CaCl2, 1 mM MgCl2, 2 mM probenecid, 5 mM D-glucose monohydrate, pH=7.4) at ten concentrations ranging from 25 μM to 1 nM (final concentration) were dispensed and incubated for 30 minutes at room temperature. The agonist, MgATP (Sigma-Aldrich Chemie GmbH, DE), was added at a final concentration of 5 μM, representing the EC80 routinely determined. The final assay volume was 50 μl and final DMSO concentration was 0.5%.
The fluorescence intensity reflecting intracellular calcium changes was recorded before and after MgATP addition, at an excitation and emission wavelengths of 470-495 nm and 515-575 nm respectively.
The compounds were tested in triplicates and fluorescence intensity raw data normalized to the agonist control and fitted to the four-parameter logistic equation:
Y=Bottom+(Top−Bottom)/(1+10^((Log IC50−X)*HillSlope))
Assay plate acceptance was based on the signal window (S/B)[…] and the reference compound pIC50 within ±[…] the mean of historic pIC50 of the compound. Failure to meet two of the three criteria determined exclusion of the plate's results. In Table 10 below the results for the assays are reported

human P2X4 = target: T2, human P2X4 (Homo sapiens, UniProt Q99571); test: Human P2X4 HEK Cell FLIPR Assay; assay type: cell-based; conditions: HEK293 stably expressing human P2X4, agonist Bz-ATP 3 μM (EC80); for IC50: read-out: Human P2X4 HEK Cells (FLIPR Assay) avg IC50
T2 construct: expressed in transfected cells
T2 sequence (Q99571 1-388): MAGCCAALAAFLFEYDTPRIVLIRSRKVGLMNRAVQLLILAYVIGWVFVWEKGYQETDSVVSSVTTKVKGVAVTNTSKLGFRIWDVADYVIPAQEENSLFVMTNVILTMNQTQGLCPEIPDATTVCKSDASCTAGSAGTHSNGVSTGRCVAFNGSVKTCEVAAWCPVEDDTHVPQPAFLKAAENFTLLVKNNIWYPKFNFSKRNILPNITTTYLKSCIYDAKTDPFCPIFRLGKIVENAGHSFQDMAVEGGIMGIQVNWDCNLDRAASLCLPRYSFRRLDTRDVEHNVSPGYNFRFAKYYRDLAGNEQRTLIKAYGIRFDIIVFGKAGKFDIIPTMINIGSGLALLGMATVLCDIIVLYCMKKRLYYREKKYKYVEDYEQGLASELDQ
How it was run: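 HEK293 cells stably expressing human P2X4 were loaded with Fluo8-AM (30 min, 37 °C, HBSS/HEPES pH 7.4 with probenecid), then preincubated 30 min at room temperature with compound, 25 μM–1 nM final, 0.5% DMSO. Bz-ATP-evoked calcium fluorescence was read on FLIPR; data were normalized to agonist control and given a four-parameter fit for IC50.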

Compound | IC50 (rat P2X4) | Rat P2X4 1321N1 Astrocytoma Cells (FLIPR Assay) avg Efficacy (rat P2X4) | Human P2X4 HEK Cells (FLIPR Assay) avg Efficacy (human P2X4) | IC50 (human P2X4)
CC(=O)N(c1ccc(F)c(F)c1)c1cc(NC(=O)Cc2ccccc2Cl)ccn1 [Example 1, N-{4-[2-(2-chlorophenyl)acetamido]pyridin-2-yl}-N-(3,4-difluorophenyl)acetamide] | 96.7 nM | 82% | 89% | 224 nM
CC(=O)N(c1cccc(C(F)F)c1)c1cc(NC(=O)Cc2cccc(F)c2Cl)ccn1 [Example 4, N-{4-[2-(2-chloro-3-fluorophenyl)acetamido]pyridin-2-yl}-N-[3-(difluoromethyl)phenyl]acetamide] | 855 nM | 100% | 100% | 397 nM
CC(=O)N(c1cccc(C(F)F)c1)c1cc(NC(=O)Cc2c(Cl)cccc2Cl)ccn1 [Example 5, N-{4-[2-(2,6-dichlorophenyl)acetamido]pyridin-2-yl}-N-[3-(difluoromethyl)phenyl]acetamide] | 440 nM | 100% | 102% | 386 nM
CC(=O)N(c1cccc(C#N)c1)c1cc(NC(=O)Cc2ccccc2Cl)ccn1 [Example 13, N-{4-[2-(2-chlorophenyl)acetamido]pyridin-2-yl}-N-(3-cyanophenyl)acetamide] | 790 nM | 93% | 96% | 289 nM
CC(=O)N(c1cccc(C#N)c1)c1cc(NC(=O)Cc2c(Cl)cccc2Cl)ccn1 [Example 14, N-(3-cyanophenyl)-N-{4-[2-(2,6-dichlorophenyl)acetamido]pyridin-2-yl)acetamide] | 201 nM | 98% | 100% | 243 nM
CC(=O)N(c1cccc(C#N)c1)c1cc(NC(=O)Cc2c(F)cccc2Cl)ccn1 [Example 15, N-{4-[2-(2-chloro-6-fluorophenyl)acetamido]pyridin-2-yl}-N-(3-cyanophenyl)acetamide] | 441 nM | 88% | 94% | 408 nM
CC(=O)N(c1ccc(F)c(C#N)c1)c1cc(NC(=O)Cc2ccccc2Cl)ccn1 [Example 21, N-{4-[2-(2-chlorophenyl)acetamido]pyridin-2-yl}-N-(3-cyano-4-fluorophenyl)acetamide] | 374 nM | 90% | 91% | 343 nM
CC(=O)N(c1ccc(F)c(C#N)c1)c1cc(NC(=O)Cc2ccc(F)cc2Cl)ccn1 [Example 22, N-{4-[2-(2-chloro-4-fluorophenyl)acetamido]pyridin-2-yl}-N-(3-cyano-4-fluorophenyl)acetamide] | 217 nM | 95% | 98% | 482 nM
CC(=O)N(c1ccc(F)c(C#N)c1)c1cc(NC(=O)Cc2cccc(F)c2Cl)ccn1 [Example 23, N-{4-[2-(2-chloro-3-fluorophenyl)acetamido]pyridin-2-yl}-N-(3-cyano-4-fluorophenyl)acetamide] | 483 nM | 96% | 99% | 356 nM
CC(=O)N(c1ccc(F)c(C#N)c1)c1cc(NC(=O)Cc2c(Cl)cccc2Cl)ccn1 [Example 24, N-(3-cyano-4-fluorophenyl)-N-{4-[2-(2,6-dichlorophenyl)acetamido]pyridin-2-yl}acetamide] | 174 nM | 99% | 100% | 346 nM
CC(=O)N(c1ccccc1)c1cc(NC(=O)Cc2ccccc2Cl)ccn1 [Example 25, N-{4-[2-(2-chlorophenyl)acetamido]pyridin-2-yl}-N-phenylacetamide] | 851 nM | 100% | 100% | 524 nM
CC(=O)N(c1ccccc1)c1cc(NC(=O)Cc2ccc(F)cc2Cl)ccn1 [Example 26, N-{4-[2-(2-chloro-4-fluorophenyl)acetamido]pyridin-2-yl}-N-phenylacetamide] | 649 nM | 101% | 102% | 660 nM
CC(=O)N(c1ccccc1)c1cc(NC(=O)Cc2c(Cl)cccc2Cl)ccn1 [Example 27, N-{4-[2-(2,6-dichlorophenyl)acetamido]pyridin-2-yl}-N-phenylacetamide] | 652 nM | 99% | 97% | 242 nM
CC(=O)N(c1ccc(F)cc1)c1cc(NC(=O)Cc2cccc(C)c2C)ccn1 [Example 29, N-{4-[2-(2,3-dimethylphenyl)acetamido]pyridin-2-yl}-N-(4-fluorophenyl)acetamide] | 92.5 nM | 77% | 91% | 391 nM
CC(=O)N(c1ccc(F)cc1)c1cc(NC(=O)Cc2ccccc2C(F)(F)F)ccn1 [Example 30, N-(4-fluorophenyl)-N-(4-{2-[2-(trifluoromethyl)phenyl]acetamido}pyridin-2-yl)acetamide] | 727 nM | 96% | 98% | 384 nM
CC(=O)N(c1ccc(F)cc1)c1cc(NC(=O)Cc2cccc(F)c2C(F)(F)F)ccn1 [Example 32, N-(4-fluorophenyl)-N-(4-{2-[3-fluoro-2-(trifluoromethyl)phenyl]acetamido}pyridin-2-yl)acetamide] | 801 nM | 100% | 101% | 355 nM
CC(=O)N(c1ccc(F)cc1)c1cc(NC(=O)Cc2c(Cl)cccc2C#N)ccn1 [Example 33, N-{4-[2-(2-chloro-6-cyanophenyl)acetamido]pyridin-2-yl}-N-(4-fluorophenyl)acetamide] | 1540 nM | 98% | 93% | 723 nM
CC(=O)N(c1ccc(F)cc1)c1cc(NC(=O)Cc2c(C)cccc2C)ccn1 [Example 34, N-{4-[2-(2,6-dimethylphenyl)acetamido]pyridin-2-yl}-N-(4-fluorophenyl)acetamide] | 170 nM | 94% | 97% | 199 nM
CC(=O)N(c1ccc(F)cc1)c1cc(NC(=O)Cc2ccccc2Cl)ccn1 [Example 36, N-{4-[2-(2-chlorophenyl)acetamido]pyridin-2-yl}-N-(4-fluorophenyl)acetamide] | 290 nM | 90% | 91% | 206 nM
